The source of these data is patent publication US12384753B2, “17-beta-hydroxysteroid dehydrogenase type 13 inhibitors and methods of use thereof” (Enanta Pharmaceuticals, Inc., priority 2021, dated 2025).

pIC50: −log10 of the molar value.

As a reminder, the pIC50 is the IC50 on a negative log10 scale, so that one unit is a factor of ten.

The target of the assay is Recombinant human HSD17B13 (Homo sapiens (Human), UniProt Q7Z5P4). The assay can be described thus: HSD17B13 rapid-fire mass spectrometry assay (RF/MS assay). Type of assay: biochemical. The note with it: inhibition of HSD17B13; LTB4 10 μM, NAD+ 0.5 mM, RT 3 h; IC50 ranges A-E. In short, it runs like this: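 Product 12-oxo-LTB4 and substrate LTB4 quantified by RapidFire triple-quad MS in negative mode, giving percent conversion. Reaction: 80 nM recombinant hHSD17B13, 10 μM LTB4, 0.5 mM NAD+, compound up to 100 μM, pH 7.5, RT, 3 h. Variable-slope fit gave IC50; run in duplicate.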
Sequence of Recombinant human HSD17B13 (Q7Z5P4 20-300): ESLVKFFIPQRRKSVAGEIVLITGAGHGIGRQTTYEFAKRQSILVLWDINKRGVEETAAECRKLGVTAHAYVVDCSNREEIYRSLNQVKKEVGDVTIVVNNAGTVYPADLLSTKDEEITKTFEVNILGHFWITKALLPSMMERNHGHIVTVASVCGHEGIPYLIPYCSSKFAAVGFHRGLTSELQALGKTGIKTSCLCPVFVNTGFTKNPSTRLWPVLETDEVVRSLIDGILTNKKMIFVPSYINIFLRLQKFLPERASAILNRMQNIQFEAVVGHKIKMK
Regarding `COc1cc(C(=O)O)ccc1NS(=O)(=O)c1ccc(-c2ccc(-c3ccc(C)cc3)cc2)s1` [Example 199], the pIC50 is 6.30 to 7.00. The result for `COc1cccc(-c2ccc(S(=O)(=O)Nc3ccc(C(=O)O)cc3OC)s2)c1` [Example 200] reads above 7.00. The result for `COc1cc(C(=O)O)ccc1NS(=O)(=O)c1ccc(-c2ccccc2F)s1` [Example 201] reads above 7.00. The result for `COc1cc(C(=O)O)ccc1NS(=O)(=O)c1csc(C#Cc2cccc(C(F)(F)F)c2)n1` [Example 202] reads above 7.00; that for `COc1cc(C(=O)O)ccc1NS(=O)(=O)c1csc(C#Cc2cccc(F)c2)n1` [Example 203], above 7.00. With `COc1cc(C(=O)O)ccc1NS(=O)(=O)c1csc(C#Cc2ccccc2F)n1` [Example 204], the negative-log IC50 (pIC50) is above 7.00. The result for `COc1cc(C(=O)O)ccc1NS(=O)(=O)c1ccc(-c2ccc(-c3ccc(F)cc3)cc2)s1` [Example 205] reads 6.30 to 7.00. The result for `COc1ccc(-c2ccc(-c3ccc(S(=O)(=O)Nc4ccc(C(=O)O)cc4OC)s3)cc2)cc1` [Example 206] reads 6.30 to 7.00; that for `COc1cc(C(=O)O)ccc1NS(=O)(=O)c1ccc(-c2ccc(-c3ccc(O)cc3)cc2)s1` [Example 207], 6.00 to 6.30. The result for `COc1cc(C(=O)O)ccc1NS(=O)(=O)c1ccc(-c2cccc(F)c2)s1` [Example 208] reads above 7.00; that for `COc1cc(C(=O)O)ccc1NS(=O)(=O)c1csc(C#Cc2ccc([N+](=O)[O-])cc2)n1` [Example 209], 6.30 to 7.00.

Turning to `COc1cc(C(=O)O)ccc1NS(=O)(=O)c1csc(C#Cc2ccc(N(C)C)cc2)n1` [Example 210], the pIC50 is above 7.00. The result for `COc1cc(C(=O)O)ccc1NS(=O)(=O)c1ccc(-c2cccc(C)c2)s1` [Example 211] reads above 7.00. The result for `COc1cc(C(=O)O)ccc1NS(=O)(=O)c1ccc(-c2cccc(C(F)(F)F)c2)s1` [Example 212] reads above 7.00; that for `COc1cc(C(=O)O)ccc1NS(=O)(=O)c1ccc(-c2ccccc2C(F)(F)F)s1` [Example 213], 6.30 to 7.00. As for `COc1cc(C(=O)O)ccc1NS(=O)(=O)c1csc(C#CC2CC2)n1` [Example 214], the negative-log IC50 (pIC50) is above 7.00. The result for `COc1cc(C(=O)O)ccc1NS(=O)(=O)c1csc(C#Cc2cccnc2)n1` [Example 215] reads 6.30 to 7.00. Consider `COc1cc(C(=O)O)ccc1NS(=O)(=O)c1csc(C#Cc2ccncc2)n1` [Example 216], for which the negative-log IC50 (pIC50) was 6.30 to 7.00.

As to `COc1cc(C(=O)O)ccc1NS(=O)(=O)c1csc(C#CC2CCCC2)n1` [Example 217], the negative logarithm of the IC50 (pIC50) was above 7.00.

As to `COc1cc(C(=O)O)ccc1NS(=O)(=O)c1csc(C#Cc2cccs2)n1` [Example 218], the pIC50 is above 7.00. The result for `COc1cc(C(=O)O)ccc1NS(=O)(=O)c1ccc(-c2ccc(-c3ccc(OC(F)(F)F)cc3)cc2)s1` [Example 219] reads 6.30 to 7.00; that for `COc1cc(C(=O)O)c(F)cc1NS(=O)(=O)c1csc(C#Cc2ccc(C)cc2)n1` [Example 220], above 7.00. The result for `COc1ccc(C#Cc2nc(S(=O)(=O)Nc3cc(F)c(C(=O)O)cc3OC)cs2)cc1` [Example 221] reads above 7.00. For the molecule `COc1cc(C(=O)O)c(F)cc1NS(=O)(=O)c1csc(C#Cc2ccc(F)cc2)n1` [Example 222], the pIC50 was above 7.00. As for `COc1cc(C(=O)O)ccc1NS(=O)(=O)c1csc(C#Cc2ccc(C#N)cc2)n1` [Example 223], the pIC50 is 4.00 to 6.00. As to `COc1cc(C(=O)O)ccc1NS(=O)(=O)c1csc(C#Cc2ccc(C(N)=O)cc2)n1` [Example 224], the negative-log IC50 (pIC50) was 4.00 to 6.00.

As to `COc1cc(C(=O)O)ccc1NS(=O)(=O)c1csc(C#Cc2ccccc2C(F)(F)F)n1` [Example 225], the negative logarithm of the IC50 (pIC50) is above 7.00. The result for `COc1cc(C(=O)O)ccc1NS(=O)(=O)c1csc(C#Cc2ccc(OC(F)(F)F)cc2)n1` [Example 226] reads 6.30 to 7.00; that for `COc1cc(C(=O)O)c(F)cc1NS(=O)(=O)c1csc(C#Cc2ccc(C(F)(F)F)cc2)n1` [Example 227], above 7.00. In the case of `COc1cc(C(=O)O)c(F)cc1NS(=O)(=O)c1csc(C#Cc2ccc(Cl)cc2)n1` [Example 228], the negative logarithm of the IC50 (pIC50) was above 7.00.

Turning to `COc1cc(C(=O)O)c(F)cc1NS(=O)(=O)c1csc(C#Cc2ccc(O)cc2)n1` [Example 229], the negative-log IC50 (pIC50) is above 7.00. Turning to `COc1cc(C(=O)O)c(F)cc1NS(=O)(=O)c1ccc(-c2ccc(C(F)(F)F)cc2)s1` [Example 230], the pIC50 was 6.30 to 7.00.

As to `COc1cc(C(=O)O)c(F)cc1NS(=O)(=O)c1ccc(-c2ccc(F)cc2)s1` [Example 231], the pIC50 is above 7.00. The result for `COc1cc(C(=O)O)c(F)cc1NS(=O)(=O)c1ccc(-c2ccc(Cl)cc2)s1` [Example 232] reads above 7.00; that for `COc1cc(C(=O)O)c(F)cc1NS(=O)(=O)c1ccc(-c2ccc(C)cc2)s1` [Example 233], 6.30 to 7.00. The result for `COc1cc(C(=O)O)c(F)cc1NS(=O)(=O)c1csc(C#Cc2cccc(Cl)c2)n1` [Example 234] reads 6.30 to 7.00. The result for `COc1cc(C(=O)O)c(F)cc1NS(=O)(=O)c1csc(C#Cc2ccccc2Cl)n1` [Example 235] reads above 7.00; that for `COc1cc(C(=O)O)c(F)cc1NS(=O)(=O)c1csc(C#Cc2cccc(C)c2)n1` [Example 236], above 7.00; that for `COc1cc(C(=O)O)c(F)cc1NS(=O)(=O)c1csc(C#Cc2ccccc2C)n1` [Example 237], 6.30 to 7.00. On to `COc1cc(C(=O)O)ccc1NS(=O)(=O)c1csc(C#Cc2ccccc2OC(F)(F)F)n1` [Example 238], for which the negative logarithm of the IC50 (pIC50) is above 7.00.

As for `COc1cc(C(=O)O)ccc1NS(=O)(=O)c1csc(C#Cc2cccc(OC(F)(F)F)c2)n1` [Example 239], the negative logarithm of the IC50 (pIC50) is above 7.00. The result for `COc1cc(C(=O)O)c(F)cc1NS(=O)(=O)c1csc(C#Cc2ccc(C(C)(C)C)cc2)n1` [Example 240] reads above 7.00. In the case of `COc1cc(C(=O)O)c(F)cc1NS(=O)(=O)c1csc(C#Cc2ccc(C(C)C)cc2)n1` [Example 241], the negative-log IC50 (pIC50) was above 7.00. The result for `COc1cccc(C#Cc2nc(S(=O)(=O)Nc3cc(F)c(C(=O)O)cc3OC)cs2)c1` [Example 242] reads above 7.00; that for `COc1ccccc1C#Cc1nc(S(=O)(=O)Nc2cc(F)c(C(=O)O)cc2OC)cs1` [Example 243], above 7.00; that for `COc1cccc(C#Cc2nc(S(=O)(=O)Nc3ccc(C(=O)O)cc3OC)cs2)n1` [Example 244], 6.00 to 6.30. The result for `COc1ccnc(C#Cc2nc(S(=O)(=O)Nc3ccc(C(=O)O)cc3OC)cs2)c1` [Example 245] reads 4.00 to 6.00. For the molecule `COc1cc(C#Cc2nc(S(=O)(=O)Nc3ccc(C(=O)O)cc3OC)cs2)ccn1` [Example 246], the pIC50 was 6.00 to 6.30.

For `COc1cc(C(=O)O)ccc1NS(=O)(=O)c1csc(C#Cc2cc(C(F)(F)F)[nH]c(=O)c2)n1` [Example 247, 3-methoxy-4-((2-((2-oxo-6-(trifluoromethyl)-1,2-dihydropyridin-4-yl)ethynyl)thiazole)-4-sulfonamido)benzoic acid], the pIC50 is 6.30 to 7.00. The result for `COc1cncc(C#Cc2nc(S(=O)(=O)Nc3ccc(C(=O)O)cc3OC)cs2)c1` [Example 248] reads 6.30 to 7.00; that for `COc1cc(C(=O)O)ccc1NS(=O)(=O)c1ccc(-c2cccc(-c3ccccc3)c2)s1` [Example 249, 4-((5-([1,1′-biphenyl]-3-yl)thiophene)-2-sulfonamido)-3-methoxybenzoic acid], 6.30 to 7.00. The result for `COc1cc(C(=O)O)ccc1NS(=O)(=O)c1ccc(-c2cccc(-c3ccc(C)cc3)c2)s1` [Example 250, 3-methoxy-4-((5-(4′-methyl-[1,1′-biphenyl]-3-yl)thiophene)-2-sulfonamido)benzoic acid] reads 6.30 to 7.00; that for `COc1cc(C(=O)O)ccc1NS(=O)(=O)c1ccc(-c2cccc(-c3ccc(F)cc3)c2)s1` [Example 251], 6.30 to 7.00.

Regarding `COc1cc(C(=O)O)ccc1NS(=O)(=O)c1ccc(-c2cccc(-c3ccc(C(F)(F)F)cc3)c2)s1` [Example 252], the negative-log IC50 (pIC50) was 6.00 to 6.30.

As to `COc1ccc(-c2cccc(-c3ccc(S(=O)(=O)Nc4ccc(C(=O)O)cc4OC)s3)c2)cc1` [Example 253], the negative-log IC50 (pIC50) was 6.30 to 7.00.

As to `COc1cc(C(=O)O)ccc1NS(=O)(=O)c1ccc(-c2cccc(-c3ccc(OC(F)(F)F)cc3)c2)s1` [Example 254], the negative logarithm of the IC50 (pIC50) was 6.00 to 6.30. In the case of `COc1cc(C(=O)O)ccc1NS(=O)(=O)c1csc(N2Cc3ccccc3C2)n1` [Example 255], the pIC50 was 4.00 to 6.00. The result for `COc1cc(C(=O)O)ccc1NS(=O)(=O)c1csc(N2CCC(c3ccccc3)CC2)n1` [Example 256] reads 4.00 to 6.00; that for `COc1cc(C(=O)O)ccc1NS(=O)(=O)c1csc(N2CCN(c3ccccc3)CC2)n1` [Example 257], 6.00 to 6.30; that for `COc1cc(C(=O)O)ccc1NS(=O)(=O)c1csc(N2CCCC(Cc3ccccc3)C2)n1` (stereo not shown) [Example 258], 6.00 to 6.30. The result for `COc1cc(C(=O)O)ccc1NS(=O)(=O)c1csc(N2CCC(c3ccccc3)C2)n1` (stereo not shown) [Example 259] reads 4.00 to 6.00; that for `COc1cc(C(=O)O)ccc1NS(=O)(=O)c1csc(N2CCC(Cc3ccccc3)CC2)n1` [Example 260], 4.00 to 6.00; that for `COc1cc(C(=O)O)ccc1NS(=O)(=O)c1csc(N2CCCC(Nc3ccccc3)C2)n1` (stereo not shown) [Example 261], 6.00 to 6.30. With `COc1cc(C(=O)O)ccc1NS(=O)(=O)c1csc(N2CCC(c3ccccn3)CC2)n1` [Example 262], the negative-log IC50 (pIC50) is 4.00 to 6.00. The result for `COc1cc(C(=O)O)ccc1NS(=O)(=O)c1csc(N2CCC(c3nnn[nH]3)CC2)n1` [Example 263] reads 4.00 to 6.00. The result for `COc1cc(C(=O)O)ccc1NS(=O)(=O)c1csc(N2CCN(c3nccs3)CC2)n1` [Example 264] reads 4.00 to 6.00; that for `COc1cc(C(=O)O)ccc1NS(=O)(=O)c1csc(N2CCN(C3CCCC3)CC2)n1` [Example 265], 4.00 to 6.00.
